Measured values reported in PubChem BioAssay AID1645866 (Buhrlage Lab, Dana-Farber Cancer Institute and Novartis …, 2021).
The source made the active and inactive calls.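 How the source made its calls: active means in confirmatory dose-response testing, peak deubiquitinase inhibition of 30% or more; inactive means the rest.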

Molecular target: Ubiquitin carboxyl-terminal hydrolase 28 (Homo sapiens) (UniProt Q96RU2)
Experiment: Ubiquitin-specific peptidase 28 DUB inhibitors, biochemical concentration-dependence assay, validation of primary screening hits (AID 1645866)
Conditions: purified USP28, ubiquitin-rhodamine fluorescence, 30 min

Chain of Ubiquitin carboxyl-terminal hydrolase 28 (Homo sapiens) (Q96RU2 whole entry, looked up): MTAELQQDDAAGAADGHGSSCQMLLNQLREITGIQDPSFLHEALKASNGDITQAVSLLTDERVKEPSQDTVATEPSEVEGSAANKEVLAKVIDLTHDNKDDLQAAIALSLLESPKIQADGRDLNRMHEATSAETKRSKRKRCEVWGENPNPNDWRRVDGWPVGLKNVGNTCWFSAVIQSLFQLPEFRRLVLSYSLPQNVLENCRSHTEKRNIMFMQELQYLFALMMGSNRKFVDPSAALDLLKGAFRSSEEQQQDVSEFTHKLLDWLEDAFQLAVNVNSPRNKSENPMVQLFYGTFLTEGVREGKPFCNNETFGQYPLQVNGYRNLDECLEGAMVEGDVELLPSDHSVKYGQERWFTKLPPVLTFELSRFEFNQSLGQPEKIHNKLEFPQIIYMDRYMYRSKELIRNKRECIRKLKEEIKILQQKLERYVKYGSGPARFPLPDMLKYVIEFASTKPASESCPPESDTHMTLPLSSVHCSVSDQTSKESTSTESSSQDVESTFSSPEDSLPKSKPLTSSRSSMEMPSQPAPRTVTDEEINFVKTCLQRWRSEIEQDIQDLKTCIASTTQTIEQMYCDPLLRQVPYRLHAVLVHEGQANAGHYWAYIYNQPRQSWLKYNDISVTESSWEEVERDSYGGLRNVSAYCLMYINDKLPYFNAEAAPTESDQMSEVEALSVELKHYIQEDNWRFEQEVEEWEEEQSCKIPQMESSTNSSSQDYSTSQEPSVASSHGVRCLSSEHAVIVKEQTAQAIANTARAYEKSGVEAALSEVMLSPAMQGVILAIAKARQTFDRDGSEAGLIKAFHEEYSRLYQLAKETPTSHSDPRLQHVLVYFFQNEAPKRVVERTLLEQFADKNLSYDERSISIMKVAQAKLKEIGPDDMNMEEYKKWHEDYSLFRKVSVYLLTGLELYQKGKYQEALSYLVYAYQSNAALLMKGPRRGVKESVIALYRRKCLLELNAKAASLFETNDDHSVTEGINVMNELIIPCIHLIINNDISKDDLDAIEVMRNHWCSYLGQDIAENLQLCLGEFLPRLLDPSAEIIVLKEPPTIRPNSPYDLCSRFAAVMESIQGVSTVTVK

| IC50 | Structure (SMILES) |
| --- | --- |
| > 50 µM (inactive) | Cc1ccc(-c2nc(Cn3nnc(-c4nc(-c5ccccn5)no4)c3C)c(C)o2)cc1 |
| > 50 µM (inactive) | O=C(c1cc2ccccc2o1)N1CC=C(c2ccccc2)CC1 |
| 25.9 µM | CC1CCN(c2cc(-n3cnc(C(=O)N4CCCCC4)c3)ncn2)CC1 |
| 22.5 µM | Cc1nc(C(=O)N[C@@H](C)C(=O)NCc2ccc3c(c2)OCO3)cc2c1[nH]c1ccccc12 |
| 28.2 µM | Cc1ccc(C(=O)NCc2ccc(C(=O)Nc3ccc(C)c(C)c3)o2)cc1 |
| 18.8 µM | CNC(=O)c1cc2c(=O)n3cccc(C)c3nc2n1Cc1ccccc1 |
| 16.5 µM | Cn1cc(NC(=O)Nc2cccc3ccccc23)c2ccccc21 |
| > 50 µM (inactive) | COc1ccccc1C(=O)NCC(c1ccc2c(c1)CCCN2C)N1CCCC1 (stereo unspecified) |
| 3.62 µM | O=C(/C=C/C=C/C=C/C1CCCCC1)NC1=C[C@@](O)(/C=C/C=C/C=C/C(=O)NC2=C(O)CCC2=O)[C@@H]2O[C@@H]2C1=O |
| > 50 µM (inactive) | COc1cnc(CSc2ncccn2)cc1OCC(=O)Nc1cc(C)ccc1C |
| > 50 µM (inactive) | COc1ccccc1C(=O)N1CCc2[nH]c3ccc(F)cc3c2C1 |
| 49.2 µM | Cc1c(C)c2ccc(OCC(=O)NCc3ccncc3)c(C)c2oc1=O |
| 28 µM | O=C(CN1C=NC2=NS(=O)(=O)c3ccccc3N21)Nc1cc(F)ccc1F |
| > 50 µM (inactive) | CC(C)c1nc2sc3c(N(CCO)CCO)ncnc3c2c2c1COC(C)(C)C2 |
| > 50 µM (inactive) | O=C(COC(=O)C1CCCN1C(=O)C12CC3CC(CC(C3)C1)C2)c1ccc(Cl)cc1 (stereo unspecified) |
| > 50 µM (inactive) | Cc1ccccc1NC(=O)c1ccc(N2CCCCC2)nn1 |
| 1.98 µM | Nc1c(C(=O)Nc2ccc3c(c2)OCO3)sc2nc(-c3cccnc3)ccc12 |
| > 50 µM (inactive) | CCOC(=O)Nc1ccc(N2CCn3c(nc4ccccc43)C2)cc1OC |
| 23.7 µM | Cn1c(-c2nnc(SCC(=O)NCCc3ccccc3)o2)cc2ccccc21 |
| 8.65 µM | O=C(CSc1nc2ccccc2n1S(=O)(=O)c1ccc(Br)cc1)Nc1ccc([N+](=O)[O-])cc1Cl |
| > 50 µM (inactive) | O=C(COc1nsnc1N1CCOCC1)Nc1ccc(F)c(F)c1 |
| 9.87 µM | Cc1ccc(C(=O)Nc2ccc3nccnc3c2)cc1 |
| 8.61 µM | CCOc1ccc(NC(=O)Cn2c(=O)n(CC(=O)NCc3ccc(C)cc3)c(=O)c3sccc32)cc1 |
| > 50 µM (inactive) | COc1ccc(C(C(=O)NCc2ccccc2)N(C(=O)CCN2CCc3ccccc32)c2ccc(C)c(C)c2)cc1 (stereo unspecified) |
| > 50 µM (inactive) | COc1cnc(-c2ccccn2)nc1Sc1ccc(C)cc1 |
| 20.2 µM | CCC(C)c1ccc(O[C@@H]2O[C@@H]3COC(c4ccccc4)O[C@H]3[C@H](O)[C@H]2NC(C)=O)cc1 (stereo partly specified) |

| IC50 | Structure (SMILES) |
| --- | --- |
| 2.06 µM | Cc1nc(SCC(=O)Nc2cc(Cl)ccc2C)c2oc3ccccc3c2n1 |
| 18.8 µM | CN(Cc1ccccc1)S(=O)(=O)c1ccc(S(=O)(=O)N2CCN(C(=O)c3cccnc3)CC2)cc1 |
| 25.1 µM | Cc1nc2ccccc2nc1SCC(=O)Nc1ccc2c(c1)OCO2 |
| > 50 µM (inactive) | Cc1ccccc1C(=O)OCCN1C(=O)c2cccc3c(N4CCOCC4)ccc(c23)C1=O |
| > 50 µM (inactive) | Cc1ccc2c(c1C)NC(=O)[C@]21[C@@H]2C(=O)N(c3cccc(Cl)c3)C(=O)[C@@H]2[C@@H]2CCCN21 |
| 20.5 µM | O=C(NCc1cccc(NC(=O)C2CC2)c1)Nc1cccc2ccccc12 |
| 19.8 µM | Cc1ccc(C(C)C)cc1OCCOCCN1CCNCC1 |
| 26.6 µM | CC(=O)c1ccc(NC(=O)c2ccc(N3CCCCS3(=O)=O)cc2Cl)cc1 |
| 3.62 µM | N#Cc1ccc(COC(=O)c2ccc3ccccc3n2)cc1 |
| 27.4 µM | COc1cccc(CNC(=O)c2ccc(CSc3nc4ccncc4n3Cc3ccccc3F)cc2)c1 |
| 33.1 µM | CC1CC(=O)Nc2ccccc2N1S(=O)(=O)c1ccc(C#N)cc1 (stereo unspecified) |
| 21.6 µM | Cc1cccc(NC(=O)CN2C(=O)CC(c3ccccc3)S(=O)(=O)c3ccccc32)c1C (stereo unspecified) |
| > 50 µM (inactive) | CN1CCN(c2ncnc3c2oc2ccc(Cl)cc23)CC1 |
| > 50 µM (inactive) | CC(C)(C)C(=O)C1C2C(=O)N(Cc3ccccc3)C(=O)C2C2c3ccccc3C=CN12 (stereo unspecified) |
| 27.6 µM | N#Cc1ccc(NC(=O)c2ccc(S(=O)(=O)N3CCCCC3)cc2)cc1 |
| 14.3 µM | CCC[C@H]1O[C@@H]2CC(=O)O[C@@H]2C2=C1C(=O)c1c(O)cccc1C2=O |
| 12.5 µM | COc1ccc(CCn2cnc3c([nH]c4ccccc43)c2=O)cc1 |
| > 50 µM (inactive) | CCOC(=O)c1cc2c(ccn2C)n1Cc1cccc2ccccc12 |
| 2.18 µM | COc1ccc(CNC(=O)CCc2nnc3n(Cc4ccccc4Cl)c(=O)c4ccccc4n23)cc1 |
| 6.72 µM | NC(=O)c1nc(-c2ccccn2)nc2c1[nH]c(=O)n2-c1ccc2c(c1)OCO2 |
| 19.5 µM | CCC1=C(c2ccc(C)cc2)S(=O)(=O)NC1=NCC(=O)NC(C)c1ccccc1 (stereo unspecified) |
| 15.9 µM | O=C(CC1C(=O)N(Cc2ccccc2)c2nc3ccccc3n21)NCCc1ccccc1 (stereo unspecified) |
| 8.62 µM | O=c1[nH]c(C2CCN(S(=O)(=O)c3ccc(S(=O)(=O)NC4CCCCC4)cc3)CC2)nc2c1nnn2Cc1c(Cl)cccc1Cl |
| 4.28 µM | Cc1sc2ccn(C)c(=O)c2c1C(=O)NC1CCCC1 |
| 25.3 µM | CCCC(O)CCCCCCCc1cc(O)cc(O)c1C(=O)OC(CCC)CCCCCCCc1cc(O)cc(O)c1 (stereo unspecified) |
